# Patent US5591741A, “Fungicidal spiroheterocyclic derivatives” (American Cyanamid Company, priority 1993, dated 1997)
# Tests used:
# [1] = tested on: Pyricularia oryzae; type: in vivo; conditions: rice seedlings, direct therapeutic foliar spray, 600 ppm, 4-5 days
# [2] = tested on: Pseudocercosporella herpotrichoides; assay: Activity against wheat eyespot in-vitro (PHI); type: cell-based; conditions: 10 ppm, 10 days, 20° C., mycelial growth
# Summary of the method: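 Mycelial growth was scored after 10 days at 20 °C against untreated or diluent controls. The broth was half-strength potato dextrose, holding 10 ppm test compound (from acetone) and 5×10^4 fragments/ml of the eyespot fungus.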
# [3] = tested on: Venturia inaequalis; assay: Activity against apple scab in-vitro (VII); type: cell-based; conditions: 10 ppm, 10 days, 20° C., mycelial growth
# Summary of the method: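 V. inaequalis propagules (5×10^4/ml, malt agar-grown) were exposed in half-strength PDB to 10 ppm final test compound delivered in acetone. Growth was scored after incubation for 10 days at 20° C, as a rating relative to untreated or diluent-sprayed controls.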
# [4] = tested on: Erysiphe graminis f.sp. hordei; assay: Direct protectant activity against barley powdery mildew (EGP); type: in vivo; conditions: direct protectant foliar spray, 8 days
# Summary of the method: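 Rating reflects percentage of leaf area with sporulation compared with untreated or diluent-sprayed controls. Protectant spray was applied to single-leaf barley (cv Golden Promise) 24 h before conidia inoculation. Plants were kept at 18 °C and 40% RH throughout, with 8 days of disease development.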
# [5] = tested on: Rhizoctonia solani; assay: Activity against Rhizoctonia in-vitro (RSI); type: cell-based; conditions: 10 ppm, 10 days, 20° C., mycelial growth
# Summary of the method: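 Compound at a final 10 ppm (acetone vehicle) in half-strength PDB, inoculated with 5×10^4 fragments/ml of shaken-culture R. solani mycelium. After incubation at 20° C for 10 days, growth scored as a rating versus untreated or diluent-treated controls.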
# [6] = tested on: Phytophthora infestans; type: in vivo; conditions: tomato, direct protectant foliar spray
# [7] = tested on: Plasmopara viticola; assay: Antisporulant activity against vine downy mildew (PVA); type: in vivo; conditions: vine leaves, antisporulant foliar spray, 600 ppm, 750 l/ha
# Summary of the method: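 Cabernet Sauvignon vines (~8 cm) inoculated on lower leaf surfaces with 5×10^4 zoosporangia/ml, held 24 h at 21° C high humidity then 24 h glasshouse. Infected leaves sprayed underside with 600 ppm compound in 1:1 water/acetone, 0.04% Tween 20, 750 l/ha; 96 h glasshouse, 24 h humidity. Sporulating leaf area rated versus control.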
# [8] = tested on: Botrytis cinerea; assay: Direct protectant activity against broad bean grey mould (BCB); type: in vivo; conditions: direct protectant foliar spray, 600 ppm, 4 days
# Summary of the method: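 Protectant foliar test: lesion coverage assessed 4 days after inoculation and rated relative to untreated or diluent-sprayed plants. Compound applied at 600 ppm to cv The Sutton leaves 24 h before 10^6 conidia/ml suspension; incubation at 22 °C in high humidity.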
# [9] = tested on: Leptosphaeria nodorum; assay: Activity against wheat leafspot (LN); type: in vivo; conditions: direct therapeutic foliar spray, 600 ppm, 6-8 days
# Summary of the method: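 Therapeutic foliar spray: compound at 600 ppm applied to single-leaf wheat (cv Norman) 24 h after inoculation with 1.5×10^6 conidia/ml. Disease control scored after 6-8 days at 22° C and 70% humidity as lesions per leaf versus untreated or diluent-sprayed controls.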
# [10] = tested on: Alternaria solani; assay: Activity against tomato early blight (AS); type: in vivo; conditions: Table VI; tomato seedlings, contact prophylactic foliar spray, 4 days
# Summary of the method: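 Plants were challenged with A. solani conidia (10^4 spores/ml) 24 h after a protective foliar spray of compound in 50:50 acetone/water plus 0.04% Tween 20. Held humid at 21° C for 4 days, then percent leaf area with lesions was scored as a rating relative to controls.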
# [11] = tested on: Erysiphe graminis f.sp. hordei; assay: Activity against barley powdery mildew, direct therapeutic (EGT); type: in vivo; conditions: direct therapeutic foliar spray, 600 ppm, up to 7 days
# Summary of the method: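 A curative spray at 600 ppm was applied to single-leaf Golden Promise barley inoculated with powdery mildew conidia the previous day. After up to 7 days at 18 °C and 40% humidity, disease control was rated from percent leaf area sporulating relative to untreated or diluent-sprayed controls.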
SMILES,disease control rating PO [1],disease control rating PHI [2],disease control rating VII [3],disease control rating EGP [4],disease control rating RSI [5],disease control rating PIP [6],disease control rating PVA [7],disease control rating BCB [8],disease control rating LN [9],disease control rating AS [10],disease control rating EGT [11]
CC1(CNC2COC3(CCC(C(C)(C)C)CC3)C2)CCCCC1 (stereo not shown) [Compound 120],0 (less than 50% disease control),0 (less than 50% disease control),1 (about 50-80% disease control),2 (greater than 80% disease control),1 (about 50-80% disease control),0 (less than 50% disease control),0 (less than 50% disease control),1 (about 50-80% disease control),0 (less than 50% disease control),0 (less than 50% disease control),2 (greater than 80% disease control)
CC(C)CN(C)C1COC2(CCC(C(C)(C)C)CC2)C1 (stereo not shown) [Compound 121],0 (less than 50% disease control),0 (less than 50% disease control),0 (less than 50% disease control),2 (greater than 80% disease control),0 (less than 50% disease control),0 (less than 50% disease control),0 (less than 50% disease control),0 (less than 50% disease control),0 (less than 50% disease control),0 (less than 50% disease control),2 (greater than 80% disease control)
CC(C)N(CCC1CCCCC1)C1COC2(CCC(C(C)(C)C)CC2)C1 (stereo not shown) [Compound 122],2 (greater than 80% disease control),0 (less than 50% disease control),0 (less than 50% disease control),2 (greater than 80% disease control),0 (less than 50% disease control),0 (less than 50% disease control),0 (less than 50% disease control),0 (less than 50% disease control),0 (less than 50% disease control),0 (less than 50% disease control),2 (greater than 80% disease control)
CCCN(CC(C)C)C1COC2(CCC(C(C)(C)C)CC2)C1 (stereo not shown) [Compound 123],1 (about 50-80% disease control),0 (less than 50% disease control),0 (less than 50% disease control),2 (greater than 80% disease control),0 (less than 50% disease control),0 (less than 50% disease control),0 (less than 50% disease control),0 (less than 50% disease control),0 (less than 50% disease control),0 (less than 50% disease control),2 (greater than 80% disease control)
CC(=CC(=O)CC(C)C)NC1COC2(CCC(C(C)(C)C)CC2)C1 (stereo not shown) [Compound 124],0 (less than 50% disease control),0 (less than 50% disease control),0 (less than 50% disease control),2 (greater than 80% disease control),0 (less than 50% disease control),2 (greater than 80% disease control),0 (less than 50% disease control),0 (less than 50% disease control),0 (less than 50% disease control),0 (less than 50% disease control),2 (greater than 80% disease control)
CN(CC1(C)CCCCC1)C1COC2(CCC(C(C)(C)C)CC2)C1 (stereo not shown) [Compound 125],0 (less than 50% disease control),1 (about 50-80% disease control),1 (about 50-80% disease control),2 (greater than 80% disease control),0 (less than 50% disease control),0 (less than 50% disease control),0 (less than 50% disease control),0 (less than 50% disease control),0 (less than 50% disease control),0 (less than 50% disease control),2 (greater than 80% disease control)
CCN(CC1(C)CCCCC1)C1COC2(CCC(C(C)(C)C)CC2)C1 (stereo not shown) [Compound 126],0 (less than 50% disease control),0 (less than 50% disease control),1 (about 50-80% disease control),2 (greater than 80% disease control),0 (less than 50% disease control),0 (less than 50% disease control),0 (less than 50% disease control),0 (less than 50% disease control),0 (less than 50% disease control),0 (less than 50% disease control),2 (greater than 80% disease control)
CCCN(CC1(C)CCCCC1)C1COC2(CCC(C(C)(C)C)CC2)C1 (stereo not shown) [Compound 127],0 (less than 50% disease control),0 (less than 50% disease control),1 (about 50-80% disease control),2 (greater than 80% disease control),0 (less than 50% disease control),0 (less than 50% disease control),0 (less than 50% disease control),0 (less than 50% disease control),0 (less than 50% disease control),0 (less than 50% disease control),2 (greater than 80% disease control)
